Results on 98 compounds are retold here after PubChem BioAssay AID2423 (Broad Institute, 2010).

Structures are written as SMILES. Inconclusive results are not listed. Calls of active or inactive are those of the source. No rule for the calls is given here.

The subject of the assay is C. albicans CaCi-8 + fluconazole, Alamar Blue growth, 48 h. Kind of assay: resistant C. albicans growth inhibition with fluconazole, dose response, CaCi-8 strain, Alamar Blue fluorescence (AID 2423).
Regarding `O=C(/C=C/c1cccc(Cl)c1)c1nc2ccccc2[nH]1`, the EC50 is 2580 nM.

Turning to `CCOC(=O)C1CCN(CCC(=O)Nc2ccc(F)cc2)CC1`, the EC50 is > 15000 nM (inactive).

In the case of `NC[C@@H]1O[C@H](C23CC4CC(CC(C4)C2)C3)Cc2c1ccc(O)c2O`, the EC50 is 3360 nM.

For the compound `O=C1C=C(NCc2ccccc2)c2ccccc2C1=O`, the EC50 was 1860 nM.

On to `OCc1ccc(O)c2ncccc12`, for which the EC50 is 12400 nM.

Regarding `CCn1nc(-c2ccccc2)nc2c(=O)n(C)c(=O)nc1-2`, the EC50 was 883 nM.

With `COc1ccc(C(=O)NC(=S)NNC(=O)c2ccc(C)cc2)cc1`, the 50% effective concentration (EC50) is 2410 nM.

With `Cc1oc2c(F)c(F)c(F)c(F)c2c1S(=O)(=O)Nc1cccc(C(F)(F)F)c1`, the EC50 was 1490 nM.

For `COc1ccc2c(c1)c(/C=C/c1cc[n+](C)cc1)cn2C`, the concentration for a half-maximal effect (EC50) was 5950 nM.

As for `O=C1CC(c2ccccc2)CC(=NCCO)/C1=C(\O)CCCN1C(=O)c2ccccc2C1=O` (stereo not drawn), the EC50 is > 15000 nM (inactive).

`Fc1cccc(-n2cc(-c3ccccc3)c3c(=S)nc[nH]c32)c1`: the 50% effective concentration (EC50) was 1800 nM.

Turning to `COc1ccc(-n2c(-c3cccc(C)c3[N+](=O)[O-])n[nH]c2=S)cc1`, the EC50 is 316 nM.

Take `COC(=O)c1c[nH]n2c(=O)c(Cc3ccc(F)cc3Cl)c(C)nc12`: the EC50 is 755 nM.

`OCCN1CCN(C(=S)NC2CCCC2)CC1`: the EC50 is > 16000 nM (inactive).

`COc1ccc(C)cc1Nc1n[n+](-c2ccccc2)c(-c2ccc(N(C)C)cc2)s1`: the EC50 was 3710 nM.

As for `COc1ccc(-[n+]2c(-c3ccccc3)cc(-c3ccccc3)cc2-c2ccccc2)cc1`, the EC50 is > 15000 nM (inactive).

As for `COc1ccc(-c2cc(-c3cc(F)ccc3O)[nH]n2)cc1OC`, the EC50 is 13900 nM.

For `CCCCn1c(CN2CCN(C(=O)OCC)CC2)nc2c1c(=O)n(C)c(=O)n2C`, the EC50 was > 15000 nM (inactive).

`Nc1nonc1-n1nnc(C(=O)N/N=C/c2cc(Br)ccc2O)c1CNc1ccccc1`: the EC50 is 634 nM.

Regarding `CCN(CC)Cc1ccc(NC(=O)c2sc3cc(Cl)ccc3c2Cl)cc1`, the EC50 was 1080 nM.

Consider `COc1ccc(-c2cc(=O)oc3cc(OC(=O)C4CCCCC4)c(Cl)cc23)cc1`, for which the EC50 was 1120 nM.

On to `CCCCNC(=O)c1cn(C)c2ccc(S(=O)(=O)N3CCCC3)cc2c1=O`, for which the EC50 was > 15000 nM (inactive).

Consider `COc1ccc(-c2csc(-c3ccccc3)n2)c(OC)c1`, for which the EC50 was 3810 nM.

Regarding `COc1ccc(C(c2c(O)ccc3ccccc23)N2CCOCC2)c(OC)c1` (stereo not drawn), the EC50 was 2850 nM.

Regarding `Cc1nn(-c2ccccc2)c(C)c1C(=O)Nc1nnc(-c2ccco2)o1`, the EC50 is 421 nM.

Regarding `Cc1nn(-c2ccccc2)c(N2CCCC2)c1/C=N/NC(=O)c1ccccc1O`, the EC50 is > 15000 nM (inactive).

Turning to `COc1cccc(-c2nnc(NC(=O)c3ccc4ncsc4c3)o2)c1`, the EC50 was 1030 nM.

Regarding `CCN(CC)c1ccc(/C=N/NC(=O)CNC(=O)C2COc3ccccc3O2)c(O)c1` (stereo not drawn), the EC50 was 1110 nM.

Take `Cc1[nH]n(-c2cccc3ccccc23)c(=O)c1/C=N/NC(=O)c1cccc([N+](=O)[O-])c1`: the EC50 is 3270 nM.

Regarding `CC(OC(=O)c1oc2ccccc2c1COc1ccccc1)C(N)=O` (stereo not drawn), the EC50 is > 16000 nM (inactive).

Consider `CCCCn1c(=O)[nH]c(=O)c2c1nc(-c1ccc(-c3ccccc3Br)o1)n2CC`, for which the EC50 was > 15000 nM (inactive).

On to `C(#Cc1ccccc1)C[N+]1(CC#Cc2ccccc2)CCCCC1`, for which the EC50 is 10500 nM.

Take `CC(=O)NC(CC(=O)NNC(=O)c1cc2ccccc2cc1O)c1ccccc1` (stereo not drawn): the concentration for a half-maximal effect (EC50) was 16000 nM.

Consider `CN1CCc2cc3c(c4c2C1Cc1ccccc1-4)OCO3` (stereo not drawn), for which the EC50 is > 15000 nM (inactive).

On to `C#CC[N+](C)(C)CCCCCCCCCCCC`, for which the EC50 is 8930 nM.

Turning to `C=CCOc1ccc(/C=C2\SC(=S)N(NS(=O)(=O)c3ccc(C)cc3)C2=O)cc1`, the EC50 was 3290 nM.

Take `COCc1nnc(NC(=O)c2ccc(S(=O)(=O)N3CCCc4ccccc43)cc2)o1`: the EC50 is 10500 nM.

`CCc1ccccc1NC(=S)NNC(=O)c1ccccc1Cl`: the EC50 was 823 nM.

For the compound `Nc1ncnc2c1ncn2[C@@H]1O[C@H](CO)C[C@H]1O`, the EC50 is > 15000 nM (inactive).

`Cc1nc2ccc(NC(=O)COc3ccccc3)cc2s1`: the EC50 was 5370 nM.

For `Cc1ccc(S(=O)(=O)c2c(C)nn(C(C)(C)C)c2OC(=O)c2ccc(Br)o2)cc1`, the EC50 is > 16000 nM (inactive).

Regarding `CCOc1ccc(NC(=O)c2cn(-c3ccc(OCC)cc3)c(=O)c3cc(OC)c(OC)cc23)cc1`, the concentration giving a half-maximal response (EC50) is 485 nM.

As to `COc1cccc(/C=N/Nc2ncnc3scc(-c4ccccc4)c23)c1O`, the EC50 is 1190 nM.

Consider `Cc1ccc(NC(=O)c2noc(C(C)C)c2[N+](=O)[O-])cc1`, for which the half-maximal effective concentration (EC50) was 3200 nM.

For `Cc1nn(CC(=O)NCCCc2ccccc2)c(C)c1[N+](=O)[O-]`, the EC50 was > 15000 nM (inactive).

Regarding `O=C(Nc1nnc(-c2ccccc2)o1)c1cc(-c2cccs2)nc2ccccc12`, the EC50 was 901 nM.

`O=S(=O)(c1ccc(Cl)s1)N1CCCc2cccc(O)c21`: the EC50 was > 15000 nM (inactive).

Regarding `O=C(NNC(=O)c1cc2ccccc2cc1O)Nc1ccccc1F`, the EC50 is > 16000 nM (inactive).

Consider `COc1cc(OC)cc(C(=O)Oc2c(CN3CCOCC3)cc(Cl)c3cccnc23)c1`, for which the EC50 is 2620 nM.

On to `Cc1nc(C)c(C(=O)N/N=C/c2cc(Br)ccc2O)s1`, for which the EC50 is 2120 nM.

In the case of `FC(F)(F)COc1nc(OCC(F)(F)F)nc(N2CCN(c3ccccc3)CC2)n1`, the EC50 was > 16000 nM (inactive).

In the case of `N#CC1=C(N)Oc2c(ccc3cccnc23)C1c1cccnc1` (stereo not drawn), the EC50 is 8920 nM.

Consider `O=C(NC(=S)NNC(=O)c1cnccn1)c1ccc(Cl)cc1`, for which the EC50 is 3420 nM.

For `O=C(Nc1ccc(F)c(Cl)c1)NC1CC1`, the EC50 is 1490 nM.

Turning to `COc1ccc(C)cc1N=Nc1ccc(O)c2ncccc12`, the EC50 is 656 nM.

In the case of `NS(=O)(=O)c1ccc(N=Nc2ccc(O)c3ncccc23)cc1`, the concentration for a half-maximal effect (EC50) was 1380 nM.

Regarding `CSC(=S)NCc1cccnc1`, the EC50 was > 16000 nM (inactive).

For `CCOC(=O)c1sc(Nc2nc3c(OC)cccc3s2)nc1C`, the EC50 is 1950 nM.

`Clc1ccc(CONc2ncnc3nonc23)c(Cl)c1`: the EC50 was 328 nM.

Take `O=C(CN1C(=O)/C(=C/c2ccccc2)SC1=S)NNC(=O)c1ccccc1O`: the EC50 was > 16000 nM (inactive).

Turning to `O=C(NC(c1ccc(Cl)cc1)c1cc(Cl)c2cccnc2c1O)c1cccnc1` (stereo not drawn), the EC50 is 329 nM.

For the compound `CC1=CC2=C(OC1N(C)C)c1cccc3cccc(c13)C2=O` (stereo not drawn), the concentration giving a half-maximal response (EC50) is 9240 nM.

With `CCOC(=O)Cc1csc(NC(=O)c2ccc3ncsc3c2)n1`, the EC50 is 6820 nM.

In the case of `CCC(C)OC(=O)C[N+](C)(C)CCOC1CC2CCC1(C)C2(C)C` (stereo not drawn), the EC50 was 6590 nM.

As to `Cc1ccc(/C=C/C(=O)c2ccccc(=O)c2O)c(C)c1`, the concentration for a half-maximal effect (EC50) is 1260 nM.

Take `O=C1c2ccccc2NC(c2cn[nH]c2-c2ccc(Cl)cc2)N1O` (stereo not drawn): the EC50 was > 16000 nM (inactive).

For `Cc1ccccc1Nc1ncccc1C(=O)N1CCOCC1`, the EC50 is > 16000 nM (inactive).

With `O=C(c1cc2c(s1)CCCCC2)N1CCN(c2ncccn2)CC1`, the EC50 was 135 nM.

`O=C(N/N=C\c1cc(Cl)ccc1O)c1ccc(S(=O)(=O)N2CCCCC2)cc1`: the half-maximal effective concentration (EC50) was 926 nM.

As to `CCCn1c(=N)n(CC(=O)c2ccc([N+](=O)[O-])cc2)c2ccccc21`, the EC50 was > 16000 nM (inactive).

For `O=C(N/N=C(\c1ccccc1)c1ccccn1)c1cccc([N+](=O)[O-])c1`, the EC50 is 5310 nM.

On to `Clc1ccccc1-c1nc2ccccc2c2nc3ccccc3n12`, for which the EC50 is 204 nM.

On to `O=C(COc1ccc2c(c1)CCC2)NCc1cccc(Cl)c1`, for which the EC50 is 10900 nM.

As to `O=C(Nc1ccccc1Cl)c1ccc([N+](=O)[O-])o1`, the EC50 was 693 nM.

Turning to `O=C(NNC(=O)c1ccccc1O)c1ccc(-c2ccc([N+](=O)[O-])cc2)o1`, the EC50 is > 15000 nM (inactive).

As for `Cc1[nH]n(-c2ccccc2)c(=O)c1/C=N/Nc1nncc(-c2ccccc2)n1`, the EC50 was 2670 nM.

For `O=C1CS/C(=N\C(=O)N2c3ccccc3Sc3ccccc32)N1`, the half-maximal effective concentration (EC50) was 1090 nM.

Consider `CC(C)N1CCc2c(sc(NC(=O)c3nc4ccccc4s3)c2C(N)=O)C1`, for which the half-maximal effective concentration (EC50) was 239 nM.

Take `CC1(C)CC(N2CCN(Cc3ccccc3)CC2)=CC(=[N+]2CCCCC2)C1`: the EC50 was 3350 nM.

Turning to `O=C1c2ccccc2NC(c2cnc3ccccc3n2)N1O` (stereo not drawn), the EC50 was > 16000 nM (inactive).

`O=C(NNC(=S)NC(=O)C12CC3CC(CC(C3)C1)C2)c1ccncc1`: the EC50 is 4640 nM.

As to `COc1ccc(-n2nc(C(=O)NCC(=O)N3CCN(c4ccccc4)CC3)c3ccccc3c2=O)c(OC)c1`, the EC50 is 698 nM.

Turning to `Oc1ccc(O)c2c1C1c3ccccc3C2c2ccccc21`, the EC50 was 2050 nM.

With `O=C(N/N=C/c1cc(Br)c(O)c(Br)c1)c1cc2c(ccc3ccccc32)o1`, the EC50 was 915 nM.

Turning to `C=CCNC(=S)Nc1sc2c(c1C(=O)OCC)CC(C)(CC)OC2` (stereo not drawn), the EC50 was 1380 nM.

Turning to `Cc1ccc(-n2c(Cc3ccccc3)n[nH]c2=S)c(C)c1`, the EC50 was 803 nM.

On to `CCN(CC)c1ccc(/C=N/Nc2nc3ccccc3[nH]2)c(O)c1`, for which the half-maximal effective concentration (EC50) was 621 nM.

On to `CC(=O)N1CCOCCOCCN(C(C)=O)CCOCCOCC1`, for which the EC50 is > 15000 nM (inactive).

With `O=C(N/N=C/c1cc(Br)cc(Cl)c1O)c1ccc2c(c1)OCO2`, the EC50 is 2750 nM.

For the compound `O=C(CCl)N1c2ccccc2CCc2ccccc21`, the EC50 was 1010 nM.

In the case of `Clc1ccc(OCCn2ccnc2)c2ccccc12`, the concentration giving a half-maximal response (EC50) is 2910 nM.

Turning to `CS/C(=N\S(=O)(=O)c1cccs1)Nc1ccc(Br)cc1F`, the EC50 was 801 nM.

In the case of `CN1CCN(C(c2ccc(C(F)(F)F)cc2)c2ccc3cccnc3c2O)CC1` (stereo not drawn), the EC50 was 883 nM.

As for `O=C(CCc1ccccc1)NNC(=S)NC(=O)c1ccc(Cl)cc1`, the half-maximal effective concentration (EC50) is 1990 nM.

For the compound `Cc1noc2ncnc(Sc3ccc(Br)cc3)c12`, the 50% effective concentration (EC50) was 2640 nM.

For the compound `CCSc1nnc(-c2ccc(C)cc2)c2ccccc12`, the EC50 is 193 nM.

For the compound `N#C/C(C(N)=O)=c1/ccc2c(c1)N1C3=C(CCCC3)CC3CCCCC31N=2` (stereo not drawn), the EC50 is 3120 nM.

Consider `O=C(CSCc1ccc(Cl)cc1)Nc1cc([N+](=O)[O-])ccc1O`, for which the EC50 is > 15000 nM (inactive).
